According to ChEMBL document CHEMBL1121488, “Effects of phosphonium compounds on Schistosoma mansoni” (1980):

How the values were obtained:
Schistosoma mansoni [1] = assay: Probability that there was effect on carbachol response; type: functional
Schistosoma mansoni [2] = assay: Percentage reduction in carbachol response on Schistosoma mansoni; type: functional
Schistosoma mansoni [3] = assay: Effect on the carbachol-induced paralytic response on Schistosoma mansoni at 10E-4 (phosphonium treated); type: functional; parameters: unit not given here
Schistosoma mansoni [4] = assay: Probability that the compound had no effect on carbachol response; NS = no significant; type: functional, organism-based

Compound | Probability (Schistosoma mansoni [1]) | Reduction (Schistosoma mansoni [2]) [%] | Activity (Schistosoma mansoni [3]) | Probability (Schistosoma mansoni [4])
BrCCC[P+](c1ccccc1)(c1ccccc1)c1ccccc1.[Br-] | <0.01 | 45.3 | -35 | –
[Br-].[Br-].c1ccc([P+](CC[P+](c2ccccc2)(c2ccccc2)c2ccccc2)(c2ccccc2)c2ccccc2)cc1 | <0.001 | 117.8 | 13.3 | –
Br.Br.CCCCNCCC[PH](c1ccccc1)(c1ccccc1)c1ccccc1 | <0.001 | 22.8 | -70.3 | –
Br.Br.CCCCCCNCCC[PH](c1ccccc1)(c1ccccc1)c1ccccc1 | <0.0001 | 62.4 | -35.4 | –
Br.Br.NCC[PH](c1ccccc1)(c1ccccc1)c1ccccc1 | – | 14.6 | -67.8 | No significance
[Br-].[Br-].c1ccc([P+](CCCCC[P+](c2ccccc2)(c2ccccc2)c2ccccc2)(c2ccccc2)c2ccccc2)cc1 | <0.001 | 76.1 | -19.7 | –
Br.Br.CCCNCCC[PH](c1ccccc1)(c1ccccc1)c1ccccc1 | – | 0.97 | -71.7 | No significance
Br.Br.CCNCCC[PH](c1ccccc1)(c1ccccc1)c1ccccc1 | <0.05 | 18.6 | -72 | –
[Br-].[Br-].c1ccc([P+](CCC[P+](c2ccccc2)(c2ccccc2)c2ccccc2)(c2ccccc2)c2ccccc2)cc1 | <0.001 | 102.6 | 2 | –
Br.Br.NCCCCC[PH](c1ccccc1)(c1ccccc1)c1ccccc1 | <0.05 | 13.1 | -81.3 | –
N#CCCC[P+](c1ccccc1)(c1ccccc1)c1ccccc1.[Br-] | – | 10.3 | -73 | No significance
Br.Br.CCCCCNCCC[PH](c1ccccc1)(c1ccccc1)c1ccccc1 | <0.001 | 58.2 | -31.8 | –
[Br-].c1ccc(C[P+](c2ccccc2)(c2ccccc2)c2ccccc2)cc1 | <0.05 | 27.1 | -55.1 | –
CC[P+](c1ccccc1)(c1ccccc1)c1ccccc1.[Br-] [ETHYLTRIPHENYLPHOSPHONIUM BROMIDE] | <0.02 | 27 | -63.8 | –
[Br-].[Br-].c1ccc([P+](CCCCCC[P+](c2ccccc2)(c2ccccc2)c2ccccc2)(c2ccccc2)c2ccccc2)cc1 | <0.001 | 94.3 | -4.6 | –
